Article PMC4975464, “FITC Conjugation Markedly Enhances Hepatic Clearance of N-Formyl Peptides” (PLoS ONE, 2016)

Experiments:
mouse LSECs (mLSECs) = test: Endocytosis competition of FITC-fNLPNTL uptake, fluorescence microscopy; format: cell-based; settings: primary mLSECs, 4 h serum starved, 100 μg/ml competitor pre-incubated 30 min, then 20 μg/ml FITC-fNLPNTL 60 min at 37°C
Experimental: Mouse Heps (mHeps) and LSECs (mLSECs) were prepared by collagenase (Liberase) perfusion of mouse livers, followed by a low-speed differential centrifugation to separate Heps, and density sedimentation of the non-Heps enriched in the supernatant, on 25%– 45% Percoll gradients to collect LSECs and Kupffer cells (KCs), as described. Mouse LSECs were obtained after a panning step of 8 min at 37°C to remove KCs. The purity of mLSECs was between 90 and 95% as judged by fenestration assessed by scanning electron microscopy and positive immunostaining for the LSEC specific marker, stabilin 2. The remaining 5–10% of cells in these cultures represented KCs/monocytes and stellate cells. […]
(§1) Primary cultures of mouse and human Heps and LSECs were seeded on Permanox chamber slides coated with human fibronectin. […] After removal of unbound ligand by extensive washing with PBS, the cultures were fixed with 4% PFA and processed for fluorescence microscopy as described above.
(§2) After the removal of unbound ligands by extensive washing with PBS, the cultures were fixed with 4% PFA and processed for fluorescence microscopy.
(§3) Primary cultures of hLSECs (A) and mLSECs (B) were established on Permanox chamber slides coated with human fibronectin. […] After removal of unbound ligands by extensive washing with PBS, the cultures were fixed with 4% PFA and processed for fluorescence microscopy.

human LSECs (hLSECs) = test: as above; format: cell-based; settings: primary hLSECs, 4 h serum starved, 100 μg/ml competitor pre-incubated 30 min, then 20 μg/ml FITC-fNLPNTL 60 min at 37°C
From the text: Human hepatocytes (hHeps) and LSECs (hLSECs) were isolated from encapsulated liver resections based on a method described elsewhere. The procedure involves collagenase perfusion through cut blood vessels exposed on the surface of the liver resection. hHeps were isolated by low speed differential centrifugation, and the hLSECs purified by immunomagnetic isolation using mouse anti-human CD32 (Fitzgeralg Industries International INC, North Acton, MA, USA) and Dynabeads® Sheep anti-mouse IgG (Thermo Scientific, Oslo, Norway). The viability of hLSECs as judged by trypan blue exclusion was 95%, and the yield of hLSECs varied from 1 to 10 million depending on the size of the liver resection. […]
as §1, §2, §3

[1] = Anatomical distribution of i.v. injected 125I-labeled peptides; format: in vivo; settings: C57BL/6 mice, 8 μg 125I-labeled peptide i.v., n = 2 per group
Experimental: Unconjugated fNLPNTL and FITC- fNLPNTL were reconstituted at a concentration of 4 mg/ml in DMSO. […] of the solution, corresponding to 100 μg of each peptide was further diluted in PBS to a final volume of 200 μl and incubated with carrier-free Na^125I for 1h at RT, using Iodogen as described by the manufacturer. The labeled peptides were separated from unbound ^125I by elution with PBS through PD-10 columns. The specific radioactivities were 0.98 x 10^6 cpm/μg and 0.12 x 10^6 cpm/μg for ^125I-FITC-fNLPNTL and ^125I-fNLPNTL, respectively.
Prior to experiments, mice were weighed and pre-warmed in a temperature controlled chamber to stimulate dilation of the tail veins. […] The amount of radioactivity was measured in all organs and in the blood sample. The radioactivity per total volume of blood was calculated considering that the average amount of blood in a mouse is approximately 58.5 ml per kg of bodyweight (according to the National Centre for the Replacement Refinement & Reduction of Animals in Research). The amount of tracer recovered was the sum of radioactivity of individual organs, carcass and the radioactivity calculated in total blood volume.
Fig 2 Anatomical distribution of i.v. administered fNLPNTL. […] Blood, internal organs and carcass were harvested and analyzed for radioactivity. […]

[2] = tested on: human hepatocytes (hHeps); test: Endocytosis competition of FITC-fNLPNTL uptake, fluorescence microscopy; format: cell-based; settings: primary hHeps, 4 h serum starved, 100 μg/ml competitor pre-incubated 30 min, then 20 μg/ml FITC-fNLPNTL 60 min at 37°C
From the text: Human hepatocytes (hHeps) and LSECs (hLSECs) were isolated from encapsulated liver resections based on a method described elsewhere. The procedure involves collagenase perfusion through cut blood vessels exposed on the surface of the liver resection. hHeps were isolated by low speed differential centrifugation, and the hLSECs purified by immunomagnetic isolation using mouse anti-human CD32 (Fitzgeralg Industries International INC, North Acton, MA, USA) and Dynabeads® Sheep anti-mouse IgG (Thermo Scientific, Oslo, Norway). The viability of hLSECs as judged by trypan blue exclusion was 95%, and the yield of hLSECs varied from 1 to 10 million depending on the size of the liver resection. The purity of the hLSECs isolation was between 85 and 95%, as judged by light microscopy. This variation in purity is due to donor variation. […]
as §1, §2

mouse Heps (mHeps) = test: as above; format: cell-based; settings: primary mHeps, 4 h serum starved, 100 μg/ml competitor pre-incubated 30 min, then 20 μg/ml FITC-fNLPNTL 60 min at 37°C
Experimental: Mouse Heps (mHeps) and LSECs (mLSECs) were prepared by collagenase (Liberase) perfusion of mouse livers, followed by a low-speed differential centrifugation to separate Heps, and density sedimentation of the non-Heps enriched in the supernatant, on 25%– 45% Percoll gradients to collect LSECs and Kupffer cells (KCs), as described [18]. Mouse LSECs were obtained after a panning step of 8 min at 37°C to remove KCs. The purity of mLSECs was between 90 and 95% as judged by fenestration assessed by scanning electron microscopy and positive immunostaining for the LSEC specific marker, stabilin 2. The remaining 5–10% of cells in these cultures represented KCs/monocytes and stellate cells.
Primary mouse and human liver cell cultures were established on glass cover slides pre-coated with collagen type I and human fibronectin, respectively. […]

## FSA: Formaldehyde-treated bovine serum albumin, ligand specifically endocytosed by the LSECs scavenger receptors
Mouse LSECs (mLSECs)
  inhibition of uptake of FITC-fNLPNTL in mLSECs by competitor: inhibited
Human LSECs (hLSECs)
  inhibition of uptake of FITC-fNLPNTL in hLSECs by competitor: inhibited

## Fluorescein-isothiocyanate- N-Formyl-Nle-Leu-Phe-Nle-Tyr-Lys [FITC-fNLPNTL, fluorescein isothiocyanate derivative of fNLPNTL from Thermo Scientific]
[1]; 30 min post injection
  uptake in the liver compared to that of native fNLPNTL: three-fold higher
[1]; organs analysed 30 min post injection after systemic perfusion, radioactivity as % of total recovered
  major organ of uptake: liver

## N-Formyl-Nle-Leu-Phe-Nle-Tyr-Lys [fNLPNTL, N-formyl peptide purchased from Phoenix Pharmaceuticals]
[2]
  inhibition of uptake of FITC-fNLPNTL in hHeps by competitor: blocked
Mouse LSECs (mLSECs)
  inhibition of uptake of FITC-fNLPNTL in mLSECs by competitor: less marked effect
Mouse Heps (mHeps)
  inhibition of uptake of FITC-fNLPNTL in mHeps by competitor: blocked
Human LSECs (hLSECs)
  inhibition of uptake of FITC-fNLPNTL in hLSECs by competitor: less marked effect
